US11819512B2, “Solid forms of a CD73 inhibitor and the use thereof” (ARCUS BIOSCIENCES, INC., priority 2018, dated 2023)

Experiments:
[1] = Stability of crystalline material on storage (HPLC and XRPD); format: physicochemical; settings: for purity by HPLC after storage: decrease from 99%
[2] = Hygroscopicity by dynamic vapor sorption (DVS); format: physicochemical; settings: 25° C.
Description: A quantity of the crystalline material was analyzed by dynamic vapor sorption (DVS). The sample was subjected to a ramping profile from 40-90% RH at 10% increments, maintaining the sample at each step until a stable weight had been achieved at 25° C. After completion of the sorption cycle, the sample was dried using the same procedure to 0% RH followed by a second sorption cycle back to 40% RH. Two cycles were performed overall. The weight change during the sorption/desorption cycles were plotted, allowing for the hygroscopic nature of the sample to be determined. Significant hysteresis was observed, with the material retaining much larger quantities of water during the second sorption cycle as shown in FIG. 10. […] The amount of water in the sample at 90% relative humidity corresponds to the pentahydrate of the material.

[3] = 40° C. at 75% relative humidity (RH) for one week

C[C@H](Nc1cc(Cl)nc2c1cnn2[C@@H]1O[C@H](COP(=O)(O)CP(=O)(O)O)[C@@H](O)[C@H]1O)c1ccccc1F [crystalline material, [({[(2R,3S,4R,5R)-5-(6-chloro-4-{[(1S)-1-(2-fluorophenyl)ethyl]amino}-1H-pyrazolo[3,4-b]pyridin-1-yl)-3,4-dihydroxyoxolan-2-yl]methoxy}(hydroxy)phosphoryl)methyl]phosphonic Acid]
crystallinity after storage ([1]; 25° C. at 60% relative humidity (RH) for one week): no change in crystallinity
solid form by XRPD after storage [1, 3]: conversion to the amorphous material
purity by HPLC after storage [1, 3]: 97.3%
morphology by XRPD after storage ([1]; 80° C. for one week): no change in morphology
purity by HPLC after storage ([1]; 80° C. for one week): 97.4%
hygroscopic nature ([2]; DVS): hygroscopic
XRPD of the sample post-DVS ([2]; after two sorption/desorption cycles, 0-90% RH): loss of crystallinity and regeneration of amorphous material
increase of water (weight) by DVS ([2]; at 90% relative humidity relative to 0% relative humidity): 13.2 % wt.
